According to US20170253601A1, “Substituted Pyrrolidine Compounds” (EPIZYME, INC., priority 2014, published 2017):

Each compound was assayed against T1, SMYD2 (Homo sapiens, UniProt Q9NRG4) (assay: SMYD2 Biochemical Assay (3H-SAM, biotinylated peptide substrate, Flashplate)). Conditions: IC50 values are an average of n = 1 to n = 50; read-out: SMYD2 Biochem IC50 (μM)*.
T1 construct: Full length SMYD2 (NP 064582.2) was cloned; His6 (N, cleaved yes); FLAG (N); made in house; host or cells: Sf9 insect cells
T1 sequence (Q9NRG4 whole entry): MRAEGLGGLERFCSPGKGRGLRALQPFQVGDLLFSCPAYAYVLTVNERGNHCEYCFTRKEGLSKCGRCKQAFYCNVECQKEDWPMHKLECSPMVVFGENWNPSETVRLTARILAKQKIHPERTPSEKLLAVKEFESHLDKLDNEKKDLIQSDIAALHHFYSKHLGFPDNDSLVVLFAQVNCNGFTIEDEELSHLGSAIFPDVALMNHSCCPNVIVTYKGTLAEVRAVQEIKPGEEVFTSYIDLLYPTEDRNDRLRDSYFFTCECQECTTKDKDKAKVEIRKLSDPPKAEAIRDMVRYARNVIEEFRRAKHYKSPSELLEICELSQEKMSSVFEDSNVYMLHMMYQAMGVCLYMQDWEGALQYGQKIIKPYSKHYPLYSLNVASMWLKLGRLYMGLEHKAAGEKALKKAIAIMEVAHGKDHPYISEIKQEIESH
Procedure, shortened: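 Methyltransferase activity tracked as 3H transfer from 10 nM 3H-SAM to 60 nM biotinylated peptide, counted after streptavidin Flashplate capture and normalised to DMSO and 1000 uM SAH controls. Enzyme: 1.5 nM full-length Sf9-expressed SMYD2, 30 min compound pre-incubation at room temperature, in Bicine pH 7.6 buffer with 2% DMSO; reactions quenched with 600 uM unlabelled SAM; IC50 from 3- or 4-parameter fit.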
`CC[C@H]1CN(C)C[C@@H]1NC(=O)c1cc(C2CC2)on1` (racemic) [compound 157, (±)-trans-5-cyclopropyl-N-[4-ethyl-1-methyl-pyrrolidin-3-yl]-1,2-oxazole-3-carboxamide] showed an IC50 of 45.3 µM. With `C[C@@H]1CN(CC2CCN(C)CC2)C[C@H]1NC(=O)c1cc(C2CC2)on1` (racemic) [compound 158, (±)-trans-5-cyclopropyl-N-[4-methyl-1-[(1-methylpiperidin-4-yl)methyl]pyrrolidin-3-yl]-1,2-oxazole-3-carboxamide] the IC50 was over 50 µM. In the case of `C[C@@H]1CN(Cc2ccnc3ccccc23)C[C@H]1NC(=O)c1cc(C2CC2)on1` (racemic) [compound 159, (±)-trans-5-cyclopropyl-N-[4-methyl-1-(quinolin-4-ylmethyl)pyrrolidin-3-yl]-1,2-oxazole-3-carboxamide], the IC50 is reported as over 50 µM. Compound `C[C@@H]1CN(Cc2c[nH]c3ccccc23)C[C@H]1NC(=O)c1cc(C2CC2)on1` (racemic) [compound 160, (±)-trans-5-cyclopropyl-N-[1-(1H-indol-3-ylmethyl)-4-methyl-pyrrolidin-3-yl]-1,2-oxazole-3-carboxamide] has an IC50 of over 50 µM. `C[C@@H]1CN(CC2CCNC2)C[C@H]1NC(=O)c1cc(C2CC2)on1` (mixture of isomers) [compound 161, (±)-trans-5-cyclopropyl-N-[4-methyl-1-(pyrrolidin-3-ylmethyl)pyrrolidin-3-yl]-1,2-oxazole-3-carboxamide] was tested, and the IC50 was over 50 µM. Work on `C[C@H]1CN(CC2CC2)C[C@H]1NC(=O)c1cc(C2CC2)on1` (racemic) [compound 162, (±)-cis-5-cyclopropyl-N-[1-(cyclopropylmethyl)-4-methylpyrrolidin-3-yl]-1,2-oxazole-3-carboxamide] yielded an IC50 of 1.42 µM. `C[C@H]1CN(CC2CCNC2)C[C@H]1NC(=O)c1cc(C2CC2)on1` (mixture of isomers) [compound 163, (±)-cis-5-cyclopropyl-N-[4-methyl-1-(pyrrolidin-3-ylmethyl)pyrrolidin-3-yl]-1,2-oxazole-3-carboxamide] was tested, and the IC50 was over 50 µM. For `C[C@H]1CN(CC2CCNCC2)C[C@H]1NC(=O)c1cc(C2CC2)on1` (racemic) [compound 164, (±)-cis-5-cyclopropyl-N-[4-methyl-1-(piperidin-4-ylmethyl)pyrrolidin-3-yl]-1,2-oxazole-3-carboxamide], the IC50 was 4.78 µM. `C[C@H]1CN(CC(C)(C)C)C[C@H]1NC(=O)c1cc(C2CC2)on1` (racemic) [compound 165, (±)-cis-5-cyclopropyl-N-[1-(2,2-dimethyl-propyl)-4-methylpyrrolidin-3-yl]-1,2-oxazole-3-carboxamide] gave an IC50 of 11.3 µM. Work on `C[C@@H]1CN(C2CCS(=O)(=O)CC2)C[C@@H]1NC(=O)c1cc(C2CC2)on1` (racemic) [compound 166, (±)-cis-5-cyclopropyl-N-(1-(1,1-dioxido-tetrahydro-2H-thiopyran-4-yl)-4-methylpyrrolidin-3-yl)isoxazole-3-carboxamide] yielded an IC50 of 19.8 µM. `C[C@H]1CN(CCC2CCN(C(=O)OC(C)(C)C)CC2)C[C@H]1NC(=O)c1cc(C2CC2)on1` (racemic) [compound 169, (±)-cis-tert-butyl 4-{2-[3-(5-cyclopropyl-1,2-oxazole-3-amido)-4-methylpyrrolidin-1-yl]ethyl}piperidine-1-carboxylate] showed an IC50 of 6.92 µM. Compound `C[C@@H]1CN(CC2CCOCC2)C[C@H]1NC(=O)c1cc(C2CC2)on1` (racemic) [compound 170, (±)-trans-5-cyclopropyl-N-[4-methyl-1-(oxan-4-ylmethyl)pyrrolidin-3-yl]-1,2-oxazole-3-carboxamide] has an IC50 of over 50 µM. Work on `C[C@@H]1CN(Cc2ccc(-c3cc(Cl)ccc3Cl)o2)C[C@H]1NC(=O)c1cc(C2CC2)on1` (racemic) [compound 171, (±)-trans-5-cyclopropyl-N-[1-{[5-(2,5-dichlorophenyl)furan-2-yl]methyl}-4-methylpyrrolidin-3-yl]-1,2-oxazole-3-carboxamide] yielded an IC50 of over 50 µM. `C[C@@H]1CN(Cc2ccc(N3CCCC3)cc2)C[C@H]1NC(=O)c1cc(C2CC2)on1` (racemic) [compound 172, (±)-trans-5-cyclopropyl-N-[4-methyl-1-{[4-(pyrrolidin-1-yl)phenyl]methyl}pyrrolidin-3-yl]-1,2-oxazole-3-carboxamide] gave an IC50 of 29.5 µM. Work on `Cc1nc[nH]c1CN1C[C@@H](C)[C@H](NC(=O)c2cc(C3CC3)on2)C1` (racemic) [compound 173, (±)-trans-5-cyclopropyl-N-[4-methyl-1-[(4-methyl-1H-imidazol-5-yl)methyl]pyrrolidin-3-yl]-1,2-oxazole-3-carboxamide] yielded an IC50 of over 50 µM. `COc1ncc(CN2C[C@@H](C)[C@H](NC(=O)c3cc(C4CC4)on3)C2)cc1Br` (racemic) [compound 174, (±)-trans-N-[1-[(5-bromo-6-methoxypyridin-3-yl)methyl]-4-methylpyrrolidin-3-yl]-5-cyclopropyl-1,2-oxazole-3-carboxamide] showed an IC50 of over 50 µM. Work on `C[C@H]1CN(CC2CCOCC2)C[C@H]1NC(=O)c1cc(C2CC2)on1` (racemic) [compound 175, (±)-cis-5-cyclopropyl-N-[4-methyl-1-(oxan-4-ylmethyl)pyrrolidin-3-yl]-1,2-oxazole-3-carboxamide] yielded an IC50 of 3.95 µM. `CC(C)[C@H]1CN(C)C[C@@H]1NC(=O)c1cc(C2CC2)on1` (racemic) [compound 177, (±)-trans-5-cyclopropyl-N-[1-methyl-4-(propan-2-yl)pyrrolidin-3-yl]-1,2-oxazole-3-carboxamide] gave an IC50 of over 50 µM. `CC(C)[C@H]1CN(C(C)C)C[C@@H]1NC(=O)c1cc(C2CC2)on1` (racemic) [compound 178, (±)-trans-N-[1,4-bis(propan-2-yl)pyrrolidin-3-yl]-5-cyclopropyl-1,2-oxazole-3-carboxamide] gave an IC50 of over 50 µM. `C[C@@H]1CN(Cc2cc([N+](=O)[O-])ccc2F)C[C@H]1NC(=O)c1cc(C2CC2)on1` (racemic) [compound 179, (±)-trans-5-cyclopropyl-N-[1-[(2-fluoro-5-nitrophenyl)methyl]-4-methylpyrrolidin-3-yl]-1,2-oxazole-3-carboxamide] gave an IC50 of over 50 µM. With `C[C@@H]1CN(Cc2c[nH]cn2)C[C@H]1NC(=O)c1cc(C2CC2)on1` (racemic) [compound 180, (±)-trans-5-cyclopropyl-N-[1-(1H-imidazol-4-ylmethyl)-4-methylpyrrolidin-3-yl]-1,2-oxazole-3-carboxamide] the IC50 was 42.5 µM. Work on `COc1cc(CN2C[C@@H](C)[C@H](NC(=O)c3cc(C4CC4)on3)C2)cc(OC)c1` (racemic) [compound 181, (±)-trans-5-cyclopropyl-N-[1-[(3,5-dimethoxy-phenyl)methyl]-4-methylpyrrolidin-3-yl]-1,2-oxazole-3-carboxamide] yielded an IC50 of over 50 µM. `Cc1nn(C)cc1CN1C[C@@H](C)[C@H](NC(=O)c2cc(C3CC3)on2)C1` (racemic) [compound 183, (±)-trans-5-cyclopropyl-N-[1-[(1,3-dimethyl-1H-pyrazol-4-yl)methyl]-4-methylpyrrolidin-3-yl]-1,2-oxazole-3-carboxamide] showed an IC50 of over 50 µM. Work on `C[C@@H]1CN(Cc2ccnn2C)C[C@H]1NC(=O)c1cc(C2CC2)on1` (racemic) [compound 184, (±)-trans-5-cyclopropyl-N-[4-methyl-1-[(1-methyl-1H-pyrazol-5-yl)methyl]pyrrolidin-3-yl]-1,2-oxazole-3-carboxamide] yielded an IC50 of over 50 µM. `C[C@H]1CN(CC2CCCOC2)C[C@H]1NC(=O)c1cc(C2CC2)on1` (mixture of isomers) [compound 185, (±)-cis-5-cyclopropyl-N-[4-methyl-1-(oxan-3-ylmethyl)pyrrolidin-3-yl]-1,2-oxazole-3-carboxamide] gave an IC50 of 4.92 µM. In the case of `CC[C@H]1CN(C)C[C@H]1NC(=O)c1cc(C2CC2)on1` (racemic) [compound 187, (±)-cis-5-cyclopropyl-N-[4-ethyl-1-methyl-pyrrolidin-3-yl]-1,2-oxazole-3-carboxamide], the IC50 is reported as 18.1 µM. `CC[C@H]1CN(C(C)C)C[C@H]1NC(=O)c1cc(C2CC2)on1` (racemic) [compound 188, (±)-cis-5-cyclopropyl-N-[4-ethyl-1-(propan-2-yl)pyrrolidin-3-yl]-1,2-oxazole-3-carboxamide] gave an IC50 of 15.9 µM. With `CC(C)N1C[C@@H](C)[C@H](NC(=O)c2cc(C3CC3)on2)C1` (racemic) [compound 191, (±)-trans-5-cyclopropyl-N-[4-methyl-1-(propan-2-yl)pyrrolidin-3-yl]-1,2-oxazole-3-carboxamide] the IC50 was 40.3 µM. `CC(C)c1cc(C(=O)N[C@@H]2CN(C(C)C)C[C@H]2C)no1` (racemic) [compound 192, (±)-trans-N-[4-methyl-1-(propan-2-yl)pyrrolidin-3-yl]-5-(propan-2-yl)-1,2-oxazole-3-carboxamide] showed an IC50 of over 50 µM. `CC(C)c1cc(C(=O)N[C@@H]2CN(C(C)C)C[C@@H]2C)no1` (racemic) [compound 193, (±)-cis-N-[4-methyl-1-(propan-2-yl)pyrrolidin-3-yl]-5-(propan-2-yl)-1,2-oxazole-3-carboxamide] showed an IC50 of 7.85 µM. `C[C@H]1CN(Cc2c[nH]c3ccccc23)C[C@H]1NC(=O)c1cc(C2CC2)on1` (racemic) [compound 194, (±)-cis-5-cyclopropyl-N-[1-(1H-indol-3-ylmethyl)-4-methyl-pyrrolidin-3-yl]-1,2-oxazole-3-carboxamide] gave an IC50 of 6.86 µM. `C[C@H]1CN(Cc2cc3ccccc3s2)C[C@H]1NC(=O)c1cc(C2CC2)on1` (racemic) [compound 195, (±)-cis-N-[1-(1-benzothiophen-2-ylmethyl)-4-methyl-pyrrolidin-3-yl]-5-cyclopropyl-1,2-oxazole-3-carboxamide] gave an IC50 of 33.4 µM. For `CCc1nc(C)c(CN2C[C@H](C)[C@H](NC(=O)c3cc(C4CC4)on3)C2)[nH]1` (racemic) [compound 196, (±)-cis-5-cyclopropyl-N-(1-[(2-ethyl-4-methyl-1H-imidazol-5-yl)methyl]-4-methylpyrrolidin-3-yl)-1,2-oxazole-3-carboxamide], the IC50 was 35.5 µM.
